In patent publication US11413278B2, “Compounds and methods for promoting stress resistance” (priority 2015, dated 2022):
Read-outs that look alike come from different tables or passages of the source.

Key:
[1] = test system: mTOR; assay: mTOR inhibition (RPS6 phosphorylation status), In-Cell Western; type: cell-based, human
Procedure, shortened: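 Read-out is In-Cell Western near-infrared imaging of phospho-RPS6 (Ser-235/236) against total RPS6, using overnight 4° C primary staining and DyLight 680/800 secondaries. Compounds were given to WI-38 cells for 24 hrs at three doses: 5, 10 and 20 μM.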

[2] = test system: WI-38 cells; assay: Long-term effects on cell viability (5 days, ATP; morphology, PI imaging); type: cell-based; conditions: 10 μM; for Luminescence signal for ATP measurement, day-1 Average / Luminescence signal for ATP measurement, day-2 Average / Luminescence signal for ATP measurement, day-3 Average / Luminescence signal for ATP measurement, day-4 Average / Luminescence signal for ATP measurement, day-5 Average / viability at 10 µM: Batch 1; for Luminescence signal for ATP measurement, day-1 Average / Luminescence signal for ATP measurement, day-2 Average / Luminescence signal for ATP measurement, day-3 Average / Luminescence signal for ATP measurement, day-4 Average / Luminescence signal for ATP measurement, day-5 Average: n = 6, day-0 luminescence = 320956 ± 24708; for viability at 10 µM: Homo sapiens, WI-38, 120 h, DMSO ctrl = 100.0%, read-out: ATP luminescence by day-5 normalized; for Luminescence signal for ATP measurement, day-5 Average / viability at 10 µM: day-5; for O = Potential toxicity / Q = Potential toxicity: human, 5 days;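 as to Luminescence signal for ATP measurement, day-2 Average: compounds at 10 µM with ATP read daily over 5 days of treatment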;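 as to Luminescence signal for ATP measurement, day-3 Average: compounds at 10 µM with ATP read daily over 5 days of treatment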;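 as to Luminescence signal for ATP measurement, day-4 Average: compounds at 10 µM with ATP read daily over 5 days of treatment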;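 as to Luminescence signal for ATP measurement, day-5 Average: compounds at 10 µM with ATP read daily over 5 days of treatment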
[3] = test system: WI-38 cells; conditions: for Percentage of propidium iodide-positive dead cells (no H2O2 stress treatment), at 10 uM: negative control 0.41% ± 0.23%; for PI cell-death imaging without H2O2 (indicating potential toxicity): Assay 8(k), without H2O2, at 10 uM; for PI-positive dead cells under normal conditions: WI-38, no H2O2, control 0.4±0.2%
Procedure: WI-38 cells were seeded on 384-well plates for 24 hrs and then incubated with small molecules for 24 hrs. […] Images were collected on an INCell Analyzer 2000 (GE) and analyzed with the Developer software.

[4] = test system: WI-38 cells; assay: CdCl2 (cadmium) resistance assay; type: cell-based, human; conditions: for fold induction at 10 µM: Homo sapiens, 12 h, normalized ATP measurement; for Assay 4: H2O2- & Cd-resistant / Assay 2: Cadmium-resistant: YES/NO; for Assay 2: Cadmium-resistant: * indicates partial
Procedure, shortened: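 Resistance to CdCl2 or MMS stress (12 h exposure) was scored in WI-38 fibroblasts pretreated with compound at 0.25–20 μM final, five doses, technical triplicates. MMS plates had compound added 24 h before MMS, after a shift to serum-free DMEM+2% BSA. Significance came from a global variance t-test over two independent runs.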

[5] = test system: human dermal fibroblast (HDF) primary cells; assay: H2O2-resistance in primary human dermal fibroblasts; type: cell-based; conditions: for fold induction at 10 µM: Homo sapiens; for Assay 6: H2O2-resistant, at 10 uM, human dermal fibroblast (HDF) primary cells: YES/NO
[6] = Exp. 1, WI-38 cells, read-out: Exp. 1, under Cd2Cl2 stress treatment, at 10 uM (fold change)
[7] = Exp. 2, WI-38 cells, read-out: Exp. 2, under Cd2Cl2 stress treatment, at 10 uM (fold change)
[8] = score in summary of 38 core set hits
[9] = Experiment 1, HDF cells, read-out: Experiment 1, HDF cells (under H2O2 stress treatment), at 10 uM (fold change)
[10] = Experiment 2, HDF cells, read-out: Experiment 2, HDF cells (under H2O2 stress treatment), at 10 uM (fold change)
[11] = WI-38 cells, 10 μM, both stressors

O=C(c1ccc([N+](=O)[O-])o1)N1CCc2ccccc21 [O13]
G = mTOR down-regulation ([1]; 2-point score): 0 | G = mTOR down-regulation ([1]; summary score): 0 | Luminescence signal for ATP measurement, day-1 Average [2]: 546070 | Luminescence signal for ATP measurement, day-2 Average [2]: 704210 | Luminescence signal for ATP measurement, day-3 Average [2]: 806718 | Luminescence signal for ATP measurement, day-4 Average [2]: 947030 | Luminescence signal for ATP measurement, day-5 Average [2]: 992715 | viability at 10 µM [2]: 96.7% | O = Potential toxicity [2]: 0 | Q = Potential toxicity [2]: 0 | Percentage of propidium iodide-positive dead cells (no H2O2 stress treatment), at 10 uM [3]: 0.69% ± 0.12%, | fold induction at 10 µM [4, 6]: 1.27 | fold induction at 10 µM [4, 7]: 1.55 | Assay 4: H2O2- & Cd-resistant [4]: YES | Assay 2: Cadmium-resistant [4]: YES | A = Cadmium resistant [4, 8]: 0 | A = Cadmium resistant ([4]; summary score): 1 | C = H2O2- & Cd-resistant ([4]; summary score): 1 | fold induction at 10 µM [5, 9]: 11.2 | fold induction at 10 µM [5, 10]: 60.5 | Assay 6: H2O2-resistant, at 10 uM, human dermal fibroblast (HDF) primary cells [5]: YES

Oc1ncnc2sc3c(c12)CCC3 [O14]
G = mTOR down-regulation ([1]; 2-point score): 0 | G = mTOR down-regulation ([1]; summary score): 0 | Luminescence signal for ATP measurement, day-1 Average [2]: 581665 | Luminescence signal for ATP measurement, day-2 Average [2]: 685103 | Luminescence signal for ATP measurement, day-3 Average [2]: 819423 | Luminescence signal for ATP measurement, day-4 Average [2]: 1074238 | Luminescence signal for ATP measurement, day-5 Average [2]: 1052551 | viability at 10 µM [2]: 102% | O = Potential toxicity [2]: 0 | Q = Potential toxicity [2]: 0 | Percentage of propidium iodide-positive dead cells (no H2O2 stress treatment), at 10 uM [3]: 0.41% ± 0.22%, | CdCl2-resistant [4]: YES | H2O2- & CdCl2-resistant [4]: YES | fold induction at 10 µM [4, 6]: 2.2 | fold induction at 10 µM [4, 7]: 2.69 | CdCl2-resistant ([4]; WI-38 cells, 10 μM): YES | H2O2- & CdCl2-resistant [4, 11]: YES | Assay 4: H2O2- & Cd-resistant [4]: YES | Assay 2: Cadmium-resistant [4]: YES | A = Cadmium resistant [4, 8]: 1 | A = Cadmium resistant ([4]; summary score): 1 | C = H2O2- & Cd-resistant ([4]; summary score): 1 | fold induction at 10 µM [5, 9]: 2.87 | fold induction at 10 µM [5, 10]: 4.73 | Assay 6: H2O2-resistant, at 10 uM, human dermal fibroblast (HDF) primary cells [5]: YES

CCCN1C/C(=C\c2ccc(F)cc2)C(=O)/C(=C/c2ccc(F)cc2)C1 [O15]
G = mTOR down-regulation ([1]; 2-point score): 0 | G = mTOR down-regulation ([1]; summary score): 0 | Luminescence signal for ATP measurement, day-1 Average [2]: 426828 | Luminescence signal for ATP measurement, day-2 Average [2]: 601153 | Luminescence signal for ATP measurement, day-3 Average [2]: 634740 | Luminescence signal for ATP measurement, day-4 Average [2]: 904970 | Luminescence signal for ATP measurement, day-5 Average [2]: 761533 | viability at 10 µM [2]: 74.2% | O = Potential toxicity [2]: 1 | Q = Potential toxicity [2]: 0 | PI cell-death imaging without H2O2 (indicating potential toxicity) [3]: YES | PI-positive dead cells under normal conditions [3]: 3.8%±0.7% | Percentage of propidium iodide-positive dead cells (no H2O2 stress treatment), at 10 uM [3]: 3.76% ± 0.68%, | fold induction at 10 µM [4, 6]: 0.18 | fold induction at 10 µM [4, 7]: 0.57 | Assay 4: H2O2- & Cd-resistant [4]: YES | Assay 2: Cadmium-resistant [4]: YES | A = Cadmium resistant [4, 8]: 0 | A = Cadmium resistant ([4]; summary score): 1 | C = H2O2- & Cd-resistant ([4]; summary score): 1 | fold induction at 10 µM [5, 9]: 0.57 | fold induction at 10 µM [5, 10]: 1.77 | Assay 6: H2O2-resistant, at 10 uM, human dermal fibroblast (HDF) primary cells [5]: YES

[O-][n+]1onc2c3nsnc3c(Br)cc21 [O17]
G = mTOR down-regulation ([1]; 2-point score): 0 | G = mTOR down-regulation ([1]; summary score): 0 | Luminescence signal for ATP measurement, day-1 Average [2]: 507143 | Luminescence signal for ATP measurement, day-2 Average [2]: 697351 | Luminescence signal for ATP measurement, day-3 Average [2]: 849445 | Luminescence signal for ATP measurement, day-4 Average [2]: 1073975 | Luminescence signal for ATP measurement, day-5 Average [2]: 1070851 | viability at 10 µM [2]: 104% | O = Potential toxicity [2]: 0 | Q = Potential toxicity [2]: 0 | Percentage of propidium iodide-positive dead cells (no H2O2 stress treatment), at 10 uM [3]: 0.56% ± 0.25%, | fold induction at 10 µM [4, 6]: 0.95 | fold induction at 10 µM [4, 7]: 1.35 | A = Cadmium resistant [4, 8]: 0 | A = Cadmium resistant ([4]; summary score): 0 | C = H2O2- & Cd-resistant ([4]; summary score): 0 | fold induction at 10 µM [5, 9]: 3.35 | fold induction at 10 µM [5, 10]: 48.5 | Assay 6: H2O2-resistant, at 10 uM, human dermal fibroblast (HDF) primary cells [5]: YES

Cc1cc(C)c(C(=O)/C=C/c2ccccc2F)c(O)n1 [O18]
G = mTOR down-regulation ([1]; 2-point score): 0 | G = mTOR down-regulation ([1]; summary score): 0 | Luminescence signal for ATP measurement, day-1 Average [2]: 453443 | Luminescence signal for ATP measurement, day-2 Average [2]: 639628 | Luminescence signal for ATP measurement, day-3 Average [2]: 693776 | Luminescence signal for ATP measurement, day-4 Average [2]: 825623 | Luminescence signal for ATP measurement, day-5 Average [2]: 760275 | viability at 10 µM [2]: 74% | O = Potential toxicity [2]: 0 | Q = Potential toxicity [2]: 0 | Percentage of propidium iodide-positive dead cells (no H2O2 stress treatment), at 10 uM [3]: 0.36% ± 0.16%, | fold induction at 10 µM [4, 6]: 1.5 | fold induction at 10 µM [4, 7]: 1.24 | Assay 4: H2O2- & Cd-resistant [4]: YES | Assay 2: Cadmium-resistant [4]: YES | A = Cadmium resistant [4, 8]: 0 | A = Cadmium resistant ([4]; summary score): 1 | C = H2O2- & Cd-resistant ([4]; summary score): 1 | fold induction at 10 µM [5, 9]: 72.5 | fold induction at 10 µM [5, 10]: 1.27

COC(=O)CCc1sc2c(c1[N+](=O)[O-])NC(=O)CCC2 [O20]
G = mTOR down-regulation ([1]; 2-point score): 0 | G = mTOR down-regulation ([1]; summary score): 0 | Luminescence signal for ATP measurement, day-1 Average [2]: 544305 | Luminescence signal for ATP measurement, day-2 Average [2]: 770055 | Luminescence signal for ATP measurement, day-3 Average [2]: 888893 | Luminescence signal for ATP measurement, day-4 Average [2]: 997113 | Luminescence signal for ATP measurement, day-5 Average [2]: 926888 | viability at 10 µM [2]: 90.3% | O = Potential toxicity [2]: 1 | Q = Potential toxicity [2]: 0 | PI cell-death imaging without H2O2 (indicating potential toxicity) [3]: YES | PI-positive dead cells under normal conditions [3]: 0.7%±0.3% | Percentage of propidium iodide-positive dead cells (no H2O2 stress treatment), at 10 uM [3]: 0.73% ± 0.25%, | CdCl2-resistant [4]: YES | H2O2- & CdCl2-resistant [4]: YES | fold induction at 10 µM [4, 6]: 6.37 | fold induction at 10 µM [4, 7]: 4 | CdCl2-resistant ([4]; WI-38 cells, 10 μM): YES | H2O2- & CdCl2-resistant [4, 11]: YES | Assay 4: H2O2- & Cd-resistant [4]: YES | Assay 2: Cadmium-resistant [4]: YES | A = Cadmium resistant [4, 8]: 1 | A = Cadmium resistant ([4]; summary score): 1 | C = H2O2- & Cd-resistant ([4]; summary score): 1 | fold induction at 10 µM [5, 9]: 1.08 | fold induction at 10 µM [5, 10]: 63.9 | Assay 6: H2O2-resistant, at 10 uM, human dermal fibroblast (HDF) primary cells [5]: YES
